Experiments:
[1] = tested on: pancreatic neuroendocrine tumor; test: murine pancreatic neuroendocrine tumor model; conditions: mouse, in vivo
[2] = tested on: castration-resistant prostate cancer (CRPC) with bone metastases; test: adaptive phase 2 trial (NCT00940225), case studies of the first three CRPC patients with bone metastases; type: in vivo, human; conditions: for Bone scan (best response) / PSA (best response) / tALP (best response) / Hemoglobin (best response): 100 mg dose; for Hemoglobin (best response): change from baseline; for PSA: Week 18
Text: All patients provided informed consent before study screening.

xenograft tumor models = test: xenograft tumor models; conditions: in vivo
[3] = gravimetric vapor sorption (GVS) study; type: physicochemical; conditions: crystalline form; 25° C. and 90% humidity
Description: A gravimetric vapor sorption (GVS) study was run using a standard procedure. Samples were run on a dynamic vapor sorption analyzer (Surface Measurement Systems) running DVSCFR software. Sample sizes were typically 10 mg. A moisture adsorption desorption isotherm was performed as outlined below. The standard isotherm experiment, performed at 25° C., is a two-cycle run, starting at 40% RH, increasing humidity to 90% RH, decreasing humidity to 0% RH, increasing humidity again to 90% RH, and finally decreasing humidity to 0% RH in 10% RH intervals.

Question: With COc1cc2nccc(Oc3ccc(NC(=O)C4(C(=O)Nc5ccc(F)cc5)CC4)cc3)c2cc1OC [Compound 1, N-(4-{[6,7-bis(methyloxy)quinolin-4-yl]oxy}phenyl)-N′-(4-fluorophenyl)cyclopropane-1,1-dicarboxamide] as the compound, how does the overall survival [1] read?
Answer: substantially improves overall survival

Question: And the “tumor invasiveness and metastasis” value [1]?
Answer: significantly reduces tumor invasiveness and metastasis

Question: And the “Bone scan (best response)” value ([2]; Patient 1)?
Answer: Complete

Question: And the “PSA (best response)” value ([2]; Patient 1)?
Answer: −78%

Question: What about the “tALP (best response)” value ([2]; Patient 1) of the same compound?
Answer: −77%

Question: What about the “Hemoglobin (best response)” value ([2]; Patient 1) of the same compound?
Answer: +1.4 g/dL

Question: What about the CT scan response ([2]; Patient 1, Week 6) of the same compound?
Answer: partial response (PR)

Question: And the “decrease in measurable target lesions (CT scan)” value ([2]; Patient 1, Week 6)?
Answer: 33%

Question: What about the PSA ([2]; Patient 1, baseline 430 ng/mL) of the same compound?
Answer: 93.5 ng/mL

Question: What about the “PSA (best response)” value ([2]; Patient 2) of the same compound?
Answer: +61%

Question: And the “tALP (best response)” value ([2]; Patient 2)?
Answer: −6%

Question: And the “Hemoglobin (best response)” value ([2]; Patient 2)?
Answer: +1.8 g/dL

Question: What about the “decrease in target lesions (CT scan)” value ([2]; Patient 2, Week 6) of the same compound?
Answer: 13%

Question: What about the “Bone scan (best response)” value ([2]; Patient 3) of the same compound?
Answer: Near resolution

Question: What about the “PSA (best response)” value ([2]; Patient 3) of the same compound?
Answer: −57%

Question: And the “tALP (best response)” value ([2]; Patient 3)?
Answer: −77%

Question: And the “Hemoglobin (best response)” value ([2]; Patient 3)?
Answer: +2.2 g/dL

Question: And the “decrease in measurable target lesions (CT scan)” value ([2]; Patient 3, Week 6)?
Answer: 43%

Question: What about the PSA ([2]; Patient 3, 2.4 ng/mL at screening) of the same compound?
Answer: 1.2 ng/mL

Question: What about the “bone lesions, summary of three metastatic CRPC patients” value ([2]; all three patients) of the same compound?
Answer: near complete resolution of bone lesions

Question: And the “uptake of radiotracer on bone scan, summary” value ([2]; all three patients)?
Answer: striking decrease in uptake of radiotracer on bone scan

Question: And the “effect on tumors in xenograft tumor models” value (xenograft tumor models)?
Answer: causes tumor regression

Question: For COc1cc2c(Oc3ccc(NC(=O)C4(C(=O)Nc5ccc(F)cc5)CC4)cc3F)ccnc2cc1OCCCN1CCOCC1 [Compound 2, N-[3-fluoro-4-({6-(methyloxy)-7-[(3-morpholin-4-ylpropyl)oxy]quinolin-4-yl}oxy)phenyl]-N′-(4-fluorophenyl)cyclopropane-1,1-dicarboxamide], which overall survival [1] is on record?
Answer: substantially improves overall survival

Question: And the “tumor invasiveness and metastasis” value [1]?
Answer: significantly reduces tumor invasiveness and metastasis

Question: And the “effect on tumors in xenograft tumor models” value (xenograft tumor models)?
Answer: causes tumor regression

Question: What about the “weight gain (GVS)” value [3] of the same compound?
Answer: 2.5%
